Experiment [1] addresses T1, Surfactant Protein D (SP-D) (Homo sapiens, UniProt P35247).
T1 construct: gene SFTPD; dodecamer (four trimeric units)
T1 sequence (P35247 21-375): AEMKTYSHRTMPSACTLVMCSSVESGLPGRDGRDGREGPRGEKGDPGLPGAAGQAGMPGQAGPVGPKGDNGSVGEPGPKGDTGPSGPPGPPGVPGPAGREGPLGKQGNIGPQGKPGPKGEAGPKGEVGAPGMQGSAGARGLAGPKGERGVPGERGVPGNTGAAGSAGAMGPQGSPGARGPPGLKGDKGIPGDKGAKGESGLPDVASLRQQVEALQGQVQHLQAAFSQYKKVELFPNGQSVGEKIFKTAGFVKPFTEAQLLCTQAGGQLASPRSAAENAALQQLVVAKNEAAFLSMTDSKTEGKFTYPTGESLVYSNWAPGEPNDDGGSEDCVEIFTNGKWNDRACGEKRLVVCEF
The experiment can be described thus: SPR competition of SP-D ([…]) binding to immobilised biotinylated gp120 IIIB. Particulars: 5 mM CaCl2, SP-D in solution, lectin site (CRD), competes with gp120 glycans.

The target of experiment [2] is recombinant gp120 IIIB (HIV strain IIIB) (UniProt P04578). The experiment can be described thus: ELISA; competition: gp120 IIIB (2 µg/mL) immobilised; biotinylated soluble DC-SIGN, biotinylated soluble CD4 or CVN added together with SP-D (0-40 µg/mL); absorbance without competitor taken as 100%. For orientation: ELISA stands for enzyme-linked immunosorbent assay.
Experiment [3] deals with T1, Surfactant Protein D (SP-D). The experiment can be described thus: SPR competition of inactivated HIV BaL particles binding to immobilised SP-D. To be noted: pH 7.4, calcium, 25 C, lectin site (CRD), competes with HIV glycans.

We go through six compounds from paper PMC3601116, “Surfactant Protein D Modulates HIV Infection of Both T-Cells and Dendritic Cells” (PLoS ONE, 2013).

In the case of `OC[C@H]1O[C@H](O[C@H]2[C@H](O)[C@@H](O)C(O)O[C@@H]2CO)[C@H](O)[C@@H](O)[C@@H]1O` (stereo partly drawn) [maltose], the 50% inhibitory concentration (IC50) (usually the concentration needed to halve the response being measured) in experiment [1] came to 6.5 mM.
“Surfactant Protein D (from UniProt P35247 21-375) (natural protein)”: in experiment [2], the maximum inhibition of sDC-SIGN binding to gp120 was 80%.
Consider `OC[C@H]1OC(O)[C@H](O)[C@@H](O)[C@H]1O` (stereo partly drawn) [D-galactose], for which the 50% inhibitory concentration (IC50) in experiment [1] (read-out: IC50) is 32.2 mM.
In experiment [1], `CC(=O)N[C@H]1C(O)O[C@H](CO)[C@@H](O)[C@@H]1O` (stereo partly drawn) [GlcNAc] displayed a half-inhibitory concentration (IC50) of 22.9 mM.
On to `OC[C@H]1OC(O)[C@H](O)[C@@H](O)[C@@H]1O` (stereo partly drawn) [glucose], for which the IC50 in experiment [3] stood at 5.4 mM.
Regarding `OC[C@H]1OC(O)[C@@H](O)[C@@H](O)[C@@H]1O` (stereo partly drawn) [mannose], in experiment [1] (read-out: IC50), the IC50 came out at 7.8 mM.
